# Earlier results as cited in patent publication US6071925A (priority 1997, dated 2000).
# What was measured:
# [1] = tested on: mice; details: intra-cerebroventricular
# [2] = tested on: mice; details: intra-cerebroventricular; remark: listed apart in the source
# [3] = tested on: LC 132 receptor; details: CHO(LC 132+) cells in culture
substance,measurement,setting,value
"OFQ: seventeen amino-acid-long peptide (F-G-G-F-T-G-A-R-K-S-A-R-K-L-A-N-Q), natural ligand for the G-protein coupled receptor OFQ-R",effect on locomotive activity,[1],slowed down locomotive activity
same,effect on nociception,[2],induces hyperalgesia
same,effect on adenylate cyclase,[3],inhibits adenylate cyclase
